For data set [1] the following is noted: higher in brain; cited from earlier work.
In data set [2] the test system is breast cancer resistance protein (BCRP1). To be noted: cited from earlier work.
In data set [3] the test system is P-glycoprotein (Pgp). To be noted: cited from earlier work.
Data set [4] has as its target Bovine brain tubulin (Bos taurus, UniProt Q6B856). The experiment in a line: Inhibition of tubulin assembly. It counts as biochemical.
The target in data set [5] is PDGFR-β (Homo sapiens, UniProt P09619). As to the kind of experiment: Phosphotyrosine ELISA, PDGFR-β kinase inhibition. It counts as cell-based. To be noted: compared to 1. (In an ELISA, binding on a coated surface is turned into a signal by an enzyme label.)
PDGFR-β, sequence (P09619 33-1106): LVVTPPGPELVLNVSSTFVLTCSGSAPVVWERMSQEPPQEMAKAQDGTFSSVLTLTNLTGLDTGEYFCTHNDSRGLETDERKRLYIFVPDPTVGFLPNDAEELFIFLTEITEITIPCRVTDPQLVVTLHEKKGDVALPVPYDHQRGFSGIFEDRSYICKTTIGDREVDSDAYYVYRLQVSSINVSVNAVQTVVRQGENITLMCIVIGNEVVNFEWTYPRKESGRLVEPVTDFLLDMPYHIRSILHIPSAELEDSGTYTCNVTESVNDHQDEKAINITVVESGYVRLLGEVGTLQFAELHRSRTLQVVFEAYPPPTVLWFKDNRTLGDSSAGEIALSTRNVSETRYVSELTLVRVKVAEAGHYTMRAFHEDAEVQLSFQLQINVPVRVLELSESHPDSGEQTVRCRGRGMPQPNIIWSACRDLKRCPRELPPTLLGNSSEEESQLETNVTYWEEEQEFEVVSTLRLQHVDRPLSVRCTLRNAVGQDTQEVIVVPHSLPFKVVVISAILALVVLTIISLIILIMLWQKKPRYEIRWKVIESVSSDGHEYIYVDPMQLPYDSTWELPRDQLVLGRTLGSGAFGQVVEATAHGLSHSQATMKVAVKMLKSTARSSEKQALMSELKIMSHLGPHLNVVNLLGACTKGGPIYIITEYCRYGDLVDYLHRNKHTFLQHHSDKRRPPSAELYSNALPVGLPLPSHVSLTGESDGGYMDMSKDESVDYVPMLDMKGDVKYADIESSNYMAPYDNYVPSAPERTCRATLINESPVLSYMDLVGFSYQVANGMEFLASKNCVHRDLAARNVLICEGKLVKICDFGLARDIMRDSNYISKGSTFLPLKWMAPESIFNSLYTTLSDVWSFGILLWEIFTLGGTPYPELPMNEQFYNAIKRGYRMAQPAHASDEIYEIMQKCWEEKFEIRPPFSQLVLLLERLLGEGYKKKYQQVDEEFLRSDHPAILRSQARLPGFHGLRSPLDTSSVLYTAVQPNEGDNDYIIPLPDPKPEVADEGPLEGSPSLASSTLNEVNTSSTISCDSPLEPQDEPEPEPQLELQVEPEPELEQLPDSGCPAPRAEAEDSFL
The subject of data set [6] is HeLa WT-βIII cells. As to the kind of experiment: SRB assay, HeLa WT-βIII. Type of data set: cell-based. As to conditions: Homo sapiens, read-out: IC50 ± SD in WT βIII. Background: In SRB staining, fixed cells bind dye roughly in proportion to their protein.
Data set [7] concerns HeLa cells. The experiment in a line: SRB assay, HeLa. Type of data set: cell-based. To be noted: Homo sapiens, read-out: IC50 ± SD in HeLa.

Bovine brain tubulin, sequence (Q6B856 whole entry): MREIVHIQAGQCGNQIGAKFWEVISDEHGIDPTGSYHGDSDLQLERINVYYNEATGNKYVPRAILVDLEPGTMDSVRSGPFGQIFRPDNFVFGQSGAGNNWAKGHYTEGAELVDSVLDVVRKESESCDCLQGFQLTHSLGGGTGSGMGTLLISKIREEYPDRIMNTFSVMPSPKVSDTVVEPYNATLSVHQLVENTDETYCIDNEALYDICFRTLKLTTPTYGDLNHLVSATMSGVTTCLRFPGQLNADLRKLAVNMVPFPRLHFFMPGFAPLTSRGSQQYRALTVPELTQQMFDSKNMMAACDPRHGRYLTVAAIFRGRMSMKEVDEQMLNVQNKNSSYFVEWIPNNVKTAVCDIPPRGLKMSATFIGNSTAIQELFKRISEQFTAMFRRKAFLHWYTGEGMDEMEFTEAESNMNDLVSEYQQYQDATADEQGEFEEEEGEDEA
Bovine brain tubulin, sequence (P81947 whole entry partner): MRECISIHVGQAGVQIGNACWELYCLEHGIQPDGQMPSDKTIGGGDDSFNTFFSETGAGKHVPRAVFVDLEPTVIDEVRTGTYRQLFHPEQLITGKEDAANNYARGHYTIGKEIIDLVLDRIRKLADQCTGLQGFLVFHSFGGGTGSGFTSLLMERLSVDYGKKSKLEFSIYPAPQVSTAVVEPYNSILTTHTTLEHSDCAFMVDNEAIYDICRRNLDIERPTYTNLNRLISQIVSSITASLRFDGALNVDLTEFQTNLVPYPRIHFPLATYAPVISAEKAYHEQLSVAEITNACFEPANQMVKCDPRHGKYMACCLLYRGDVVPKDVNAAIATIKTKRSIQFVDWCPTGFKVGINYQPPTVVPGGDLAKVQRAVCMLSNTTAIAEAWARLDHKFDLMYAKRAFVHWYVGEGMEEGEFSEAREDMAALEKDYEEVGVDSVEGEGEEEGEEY

On to `COc1ccc(N(C)c2nc(C)nc3ccccc23)cc1` [Compound 1, N-(4-Methoxyphenyl)-N,2-dimethylquinazolin-4-amine], for which, in data set [1], the “concentrations in the brain compared to the plasma” value is 30 fold. For the same compound, the “substrate for breast cancer resistance protein (BCRP1)” value in data set [2] was “not a substrate”. Also, in data set [3], the “substrate for P-glycoprotein (Pgp)” value is “not a substrate”.

On to `CSc1ccc(N(C)c2nc(C)nc3ccccc23)cc1` [Compound 3, N,2-Dimethyl-N-(4-(methylthio)phenyl)quinazolin-4-amine], for which the IC50 (in general, the concentration needed to halve the response being measured) in data set [4] was determined as 480 ± 70 nM.

For `COc1cccc2cc(N(C)c3nc(C)nc4ccccc34)ccc12` [Compound 4, N-(5-Methoxynaphthalen-2-yl)-N,2-dimethylquinazolin-4-amine], the “fold loss of potency with PDGFR-β” value in data set [5] is reported as ~ 5 fold. In data set [4], the midpoint of inhibition, the IC50, lay at 640 ± 10 nM.

In data set [4], `COc1ccc(N(C)c2nc(Cl)nc3ccccc23)cc1` [Compound 8, 2-Chloro-N-(4-methoxyphenyl)-N-methylquinazolin-4-amine] displayed an IC50 of 470 ± 20 nM.

As for `CC(=O)O[C@H]1C(=O)[C@@]2(C)[C@H]([C@H](OC(=O)c3ccccc3)[C@]3(O)C[C@H](OC(=O)[C@H](O)[C@@H](NC(=O)c4ccccc4)c4ccccc4)C(C)=C1C3(C)C)[C@]1(OC(C)=O)CO[C@@H]1C[C@@H]2O` [Paclitaxel], the IC50 in data set [6] is 24 ± 0.2 nM; in data set [7], 2.8 ± 0.4 nM.

(Values after article PMC7995636 (Bioorganic & medicinal chemistry, 2021).)
